In PMC10874388, “Cyclic peptides discriminate BCL-2 and its clinical mutants from BCL-XL by engaging a single-residue discrepancy” (Nature Communications, 2024) one finds IC50, Thrombocytopenia and Kd data, which are given here for two compounds.

One data set relates to El4 cells. The data set is described as follows: Cell viability assay (CellTiter-Glo), El4. The data set is classed as cell-based. The note with it: Mus musculus, 48 h treatment, NO = no inhibition detected. The method, then:
(§1) The cell lines Jurkat (TIB-152), El4 (TIB-39), Daudi (ccl-213), RS4:11 (crl-1873), A549 (ccl-185), HepG2 (hb-8065) and PANC-1 (crl-1469) were purchased from ATCC (American Type Culture Collection), and MGC-803 (C6582) was purchased from Beyotime (https://www.beyotime.com/product/C6582.htm). […] Daudi and RS4:11 cells were cultured in RPMI-1640 medium (HyClone, SH30809.01) and 10% FBS (Gibco, 10099-141), whereas HepG2, MGC-803 and PANC-1 cells were cultured in MDEM (HyClone, SH30243.01). Cells were maintained at 37 °C under a humidified, 5% (v/v) CO2-containing atmosphere.
(§2) Cell viability was measured using CellTiter-Glo® 2.0 Reagent (Promega, G9242). […] After different inhibitors were added into serum-free medium and cultured for 4 h (RS4:11 for 6 h), FBS were supplemented to 10% and then incubated totally for 24 h or 48 h. Finally, the IC50 values were calculated based on measurements using a microplate reader (Thermo, Varioskan LUX). Statistical analysis was performed using software GraphPad Prism 7.0.
A general note: ATP-based viability assays read luminescence as a measure of living cells.

Details of data set [1]: method as in PMID 23410971. The note with it: attributed to binding to BCL-XL; cited from earlier work.
A further data set concerns RS4:11 cells. The data set is described as follows: Cell viability assay (CellTiter-Glo), RS4:11. The class given is cell-based. The conditions noted are these: Homo sapiens, RS4-11; 48 h treatment, CellTiter-Glo; small-molecule inhibitors, cells marked (nM). In a few lines:
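Compounds added in serum-free medium for 4 h (RS4:11: 6 h), then FBS brought to 10% and incubation continued to 24 h or 48 h total at 37 °C, 5% CO2. Viability by CellTiter-Glo 2.0 luminescence; IC50 calculated.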

For a further data set, the system named is Daudi cells. The data set is described as follows: Cell viability assay (CellTiter-Glo), Daudi. The data set is classed as cell-based. The note with it: Homo sapiens, Daudi, 48 h, 48 h treatment, CellTiter-Glo. The method, then: as §1, §2
For the next data set, the system named is Jurkat cells. Nature of the data set: Cell viability assay (CellTiter-Glo), Jurkat. The conditions noted are these: Homo sapiens, 48 h treatment, CellTiter-Glo. The class given is cell-based. The method, then: as §1, §2
For a further data set, the target named is T1, BFL-1 (Homo sapiens, UniProt Q16548).
T1 construct: BFL-1 (residues 1–151); vector-borne tag of pET-22b (Ni-NTA purification implies a His tag); made in house; host or cells: E. coli BL21 (DE3)
T1 sequence (Q16548 1-151): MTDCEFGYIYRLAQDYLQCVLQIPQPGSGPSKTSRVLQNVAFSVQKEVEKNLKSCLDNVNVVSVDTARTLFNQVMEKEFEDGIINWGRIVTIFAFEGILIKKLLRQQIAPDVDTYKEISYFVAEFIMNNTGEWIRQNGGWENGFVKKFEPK
The data set is described as follows: SPR binding assay, BFL-1. The conditions noted are these: NB = no binding. From the text: (§3) The DNA fragments encoding human BCL-XL ([…], with […] removed), BCL-w (residues 6–152), MCL-1 (residues 152–308) and BFL-1 (residues 1–151) as previously reported[18] were cloned into a pET-22b vector (Invitrogen), respectively. A chimeric human BCL-2 (including residues 1–50 and 92–207) was constructed, by removing the internal long loop (residues 51–91) and replacing its residues 35–50 with residues 33–48 of BCL-XL to solubilize the protein[14], and then it was cloned into a pET28a-Sumo vector (Invitrogen). All BCL-2 mutants (G101V, F104L, Y103D, D111A) were generated by mutagenic PCR, according to the QuikChange (Stratagene) protocol.
(§4) SPR assays were performed using a Biacore T200 instrument in running buffer consisting 10 mM PBS, 50 μM EDTA and 0.05% Tween-20 at 25 °C. Biotinylated proteins were immobilized on a CAP sensor chip (Cytiva, 28920234). […] The binding affinities were quantified by the Biacore evaluation software using 1:1 binding model. The reproducibility of the assays was confirmed by performing replicate determinations.

The target of another data set is MCL-1 (Homo sapiens, UniProt Q07820). The data set is described as follows: SPR binding assay, MCL-1. The conditions noted are these: NB = no binding.
Text: as §3, §4
On the technique in general: In SPR one partner is held on a chip, and binding of the other changes the refractive index at the surface.

The target of another data set is T2, BCL-w (Homo sapiens, UniProt Q92843).
T2 construct: BCL-w (residues 6–152); vector-borne tag of pET-22b (Ni-NTA purification implies a His tag); made in house; host or cells: E. coli BL21 (DE3)
The data set is described as follows: SPR binding assay, BCL-w. The conditions noted are these: affinity fitting, mean ± SD of three independent experiments.
Text: as §3, §4

For a further data set, the target named is T3, BCL-2-F104L (Homo sapiens, UniProt P10415, DEL35-91/F104L/INS34DVEENRTEAPEGTESE).
T3 construct: A chimeric human BCL-2 (including residues 1–50 and 92–207) was constructed; SUMO (pET28a-Sumo vector); made in house; host or cells: E. coli BL21 (DE3)
Nature of the data set: SPR binding assay, BCL-2 F104L mutant. The note with it: affinity fitting, mean ± SD of three independent experiments.
Text: as §3, §4

A further data set has as its target T4, BCL-XL (Homo sapiens, UniProt Q07817, DEL27-81).
T4 construct: human BCL-XL (residues 1–210, with 27–81 and 210–233 removed); vector-borne tag of pET-22b (Ni-NTA purification implies a His tag); made in house; host or cells: E. coli BL21 (DE3)
Nature of the data set: SPR binding assay, BCL-XL. The note with it: affinity fitting, mean ± SD of three independent experiments, 25 °C.
Text: as §3, §4

The target of the next data set is T5, BCL-2-D103Y (Homo sapiens, UniProt P10415, D103Y/DEL35-91/INS34DVEENRTEAPEGTESE).
T5 construct: A chimeric human BCL-2 (including residues 1–50 and 92–207) was constructed; SUMO (pET28a-Sumo vector); made in house; host or cells: E. coli BL21 (DE3)
The data set is described as follows: SPR binding assay, BCL-2 D103Y mutant. The note with it: affinity fitting, mean ± SD of three independent experiments.
Text: as §3, §4

In another data set the target is T6, BCL-2-G101V (Homo sapiens, UniProt P10415, DEL35-91/G101V/INS34DVEENRTEAPEGTESE).
T6 construct: A chimeric human BCL-2 (including residues 1–50 and 92–207) was constructed; SUMO (pET28a-Sumo vector); made in house; host or cells: E. coli BL21 (DE3)
The data set is described as follows: SPR binding assay, BCL-2 G101V mutant. The conditions noted are these: affinity fitting, mean ± SD of three independent experiments.
Text: as §3, §4

The next data set concerns the target T7, BCL-2-D111A (Homo sapiens, UniProt P10415, D111A/DEL35-91/INS34DVEENRTEAPEGTESE).
T7 construct: A chimeric human BCL-2 (including residues 1–50 and 92–207) was constructed; SUMO (pET28a-Sumo vector); made in house; host or cells: E. coli BL21 (DE3)
The data set is described as follows: SPR binding assay, BCL-2 D111A mutant.

Starred links: 1 amine or outer side, 2 acyl side, 3 side chain; linkers in the order of their positions; H or OH if unused. Positions of bridges follow the written chain, without caps; N, C: chain ends. Residues, ends and D or L forms follow the SMILES beside them. X1 = O=C(C[*:2])NCCNC(=O)c1ccc(C2=N[C@H](C(=O)[*:1])CS2)cc1

T2 sequence (Q92843 6-152): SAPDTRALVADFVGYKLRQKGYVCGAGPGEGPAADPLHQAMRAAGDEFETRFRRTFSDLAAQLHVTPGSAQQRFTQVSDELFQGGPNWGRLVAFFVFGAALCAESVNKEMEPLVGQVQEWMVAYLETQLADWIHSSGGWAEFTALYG
Chain of MCL-1 (Q07820 152-308): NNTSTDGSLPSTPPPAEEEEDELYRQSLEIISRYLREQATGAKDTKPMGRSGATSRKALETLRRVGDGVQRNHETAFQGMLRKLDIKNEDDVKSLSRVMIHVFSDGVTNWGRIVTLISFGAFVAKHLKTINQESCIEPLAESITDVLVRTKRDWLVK

By IC50 is commonly meant the concentration at which inhibition is half-maximal. A high value points to weaker potency. Turning to `CC1(C)CCC(c2ccc(Cl)cc2)=C(CN2CCN(c3ccc(C(=O)NS(=O)(=O)c4ccc(N[C@H](CCN5CCOCC5)CSc5ccccc5)c(S(=O)(=O)C(F)(F)F)c4)cc3)CC2)C1` [ABT-263, navitoclax], the 50% inhibitory concentration (IC50) is more than 100 µM in the data set on El4 cells, 0.4 ± 0.1 nM in the data set on RS4:11 cells, 13.5 ± 1.5 µM in the data set with Daudi cells and 8.5 ± 0.5 µM with Jurkat cells. The Thrombocytopenia result in data set [1] is on record as “dose-dependent thrombocytopenia”.

By Kd is commonly meant the constant that tells how readily two partners part at equilibrium. On to `C[C@@H]1NC(=O)[C@@H]2CCCN2C(=O)[C@@H]2CSC(=N2)c2ccc(cc2)C(=O)NCCNC(=O)CSC[C@@H](C(N)=O)NC(=O)[C@H](CCC(=O)O)NC(=O)[C@H](Cc2ccc(O)cc2)NC(=O)[C@H](CC(=O)O)NC(=O)[C@H](Cc2c[nH]c3ccccc23)NC(=O)CNC(=O)[C@H](Cc2ccc(O)cc2)NC(=O)[C@H](CCCNC(=N)N)NC1=O` [cp1] (PARYGWDYEC-NH2; linker N-10 via X1), for which the dissociation constant Kd on BFL-1 is more than 12.8 µM; at MCL-1, more than 12.8 µM; on BCL-w, 1.98 ± 0.39 µM; at BCL-2-F104L, 1.62 ± 0.36 µM; on BCL-XL, more than 12.1 µM; on BCL-2-D103Y, 0.36 ± 0.03 µM. The Kd on BCL-2-G101V was determined as 1 ± 0.13 µM; on BCL-2-D111A it was 5.34 ± 1 µM.
